Data published in paper PMC7226045, “Ensartinib (X-396) Effectively Modulates Pharmacokinetic Resistance Mediated by ABCB1 and ABCG2 Drug Efflux Transporters and CYP3A4 Biotransformation Enzyme” (Cancers, 2020).

Key:
CYP3A5 = target: T1, CYP3A5 (Homo sapiens, UniProt P20815); test: Vivid CYP screening kit, recombinant CYP3A5; type: biochemical; settings: recombinant enzyme, 15 min incubation, absolute IC50; read-out: CYP3A5 inhibition IC50
T1 construct: purchased Thermo Fisher Scientific; host or cells: insect microsomal fractions
T1 sequence (P20815 whole entry): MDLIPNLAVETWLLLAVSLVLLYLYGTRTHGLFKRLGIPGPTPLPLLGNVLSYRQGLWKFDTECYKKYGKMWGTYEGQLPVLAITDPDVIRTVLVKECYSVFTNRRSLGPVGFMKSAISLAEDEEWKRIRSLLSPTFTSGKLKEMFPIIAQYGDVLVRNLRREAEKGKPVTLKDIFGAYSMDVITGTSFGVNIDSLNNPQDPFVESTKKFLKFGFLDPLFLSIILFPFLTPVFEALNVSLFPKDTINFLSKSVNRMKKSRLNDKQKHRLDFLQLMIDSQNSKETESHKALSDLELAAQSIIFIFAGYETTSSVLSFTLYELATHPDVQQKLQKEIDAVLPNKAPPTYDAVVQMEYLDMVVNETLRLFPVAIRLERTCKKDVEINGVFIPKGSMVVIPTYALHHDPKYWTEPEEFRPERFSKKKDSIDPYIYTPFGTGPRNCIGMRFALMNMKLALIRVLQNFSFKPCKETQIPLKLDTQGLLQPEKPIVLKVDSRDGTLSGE
Protocol: (§1) CYP inhibitory assay was performed as described previously. Experiments were performed with commercial Vivid CYP screening kits containing insect microsomal fractions enriched with a specific human CYP isoform, human CYP reductase, and in some cases, human cytochrome b5. The potential inhibitory activity of ensartinib toward CYP1A2, CYP2B6, CYP2C8, CYP2C9, CYP2C19, CYP2D6, CYP3A4, and CYP3A5 (i.e., all CYP isoforms that drug regulatory authorities recommend for testing of inhibition by new molecular entities) was then examined. Experiments were performed using a kinetic mode in black 96-well plates according to the manufacturer´s instructions. Briefly, 5-point serial dilutions of ensartinib or the model inhibitor recommended by the manufacturer in buffer were transferred into the wells, then a master mix consisting of a CYP isoenzyme with an NADPH regeneration system in buffer was added. After a 10 min pre-incubation, the reaction was initiated by adding a mixture of NADP^+ and the appropriate Vivid substrate, after which fluorescence was measured at 1 min intervals for 60 min using an Infinite M200 Pro microplate reader (Tecan, Männedorf, Switzerland). The enzyme concentration and incubation interval used for data evaluation (15 min) placed the systems within the linear regions of the appropriate reaction velocity curves. […]

CYP1A2 = target: T2, CYP1A2 (Homo sapiens, UniProt P05177); test: Vivid CYP screening kit, recombinant CYP1A2; type: biochemical; settings: recombinant enzyme
T2 construct: purchased Thermo Fisher Scientific; host or cells: insect microsomal fractions
T2 sequence (P05177 2-516 limits assumed): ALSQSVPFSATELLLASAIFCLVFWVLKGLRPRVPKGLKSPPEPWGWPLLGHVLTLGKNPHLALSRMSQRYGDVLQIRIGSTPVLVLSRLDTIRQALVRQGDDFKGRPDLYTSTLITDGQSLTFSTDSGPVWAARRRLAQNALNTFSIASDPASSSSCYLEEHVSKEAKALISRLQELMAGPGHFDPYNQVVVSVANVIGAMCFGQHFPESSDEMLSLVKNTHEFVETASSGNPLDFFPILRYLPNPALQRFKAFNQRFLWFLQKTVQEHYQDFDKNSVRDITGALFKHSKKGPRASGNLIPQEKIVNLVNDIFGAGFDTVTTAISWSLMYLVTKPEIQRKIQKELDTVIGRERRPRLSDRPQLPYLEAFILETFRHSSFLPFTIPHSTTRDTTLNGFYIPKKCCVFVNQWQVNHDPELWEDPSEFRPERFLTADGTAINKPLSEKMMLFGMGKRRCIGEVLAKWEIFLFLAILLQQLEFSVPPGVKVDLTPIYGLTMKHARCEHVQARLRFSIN
Protocol: as §1

CYP2B6 = target: T3, CYP2B6 (Homo sapiens, UniProt P20813); test: Vivid CYP screening kit, recombinant CYP2B6; type: biochemical; settings: recombinant enzyme
T3 construct: purchased Thermo Fisher Scientific; host or cells: insect microsomal fractions
T3 sequence (P20813 whole entry): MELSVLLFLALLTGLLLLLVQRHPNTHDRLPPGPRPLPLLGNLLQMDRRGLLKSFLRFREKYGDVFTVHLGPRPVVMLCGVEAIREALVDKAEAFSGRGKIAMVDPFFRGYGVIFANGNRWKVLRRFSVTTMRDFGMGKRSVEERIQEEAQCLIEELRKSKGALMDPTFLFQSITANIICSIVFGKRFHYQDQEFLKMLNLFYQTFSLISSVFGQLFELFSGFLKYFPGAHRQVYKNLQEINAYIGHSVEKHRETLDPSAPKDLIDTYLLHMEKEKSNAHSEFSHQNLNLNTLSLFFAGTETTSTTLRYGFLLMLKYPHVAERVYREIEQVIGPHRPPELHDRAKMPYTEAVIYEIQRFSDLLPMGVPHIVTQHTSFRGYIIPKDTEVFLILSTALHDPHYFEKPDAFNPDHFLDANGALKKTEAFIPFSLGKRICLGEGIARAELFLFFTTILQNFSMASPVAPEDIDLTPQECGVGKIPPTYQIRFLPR
Protocol: as §1

[1] = MTT proliferation / drug combination assay, MDCKII-ABCB1; settings: dog, MDCKII-ABCB1 cells
Protocol: (§2) MTT proliferation assay was performed as described previously. Cells were seeded on a 96-well culture plate at densities (in units of cells/well) of 1.3 × 10^4 for MDCKII-par, MDCKII-ABCB1, MDCKII-ABCG2, and MDCKII-ABCC1; 1.2 × 10^4 for A431-par, A431-ABCB1, A431-ABCG2 and A431-ABCC1; 1.2 × 10^4 for NCI-H1299; 2.0 × 10^4 for Caco-2; 5.0 × 10^4 for LS174T; and 6.0 × 10^4 for HepG2-CYP3A4 and HepG2-EV. After seeding, the cells were cultured for 24 h, then the media was removed and the cells were treated with serial dilutions of a drug or drug combination for 48 h. Vehicles containing media and 40% DMSO in media served as 100% and 0% viability controls, respectively. Upon completion of the 48 h period, the cells were washed once with 1× PBS, the media was replaced with an MTT solution in Opti-MEM (1 mg/mL), and the cells were incubated under standard conditions for 60 min. MTT solution was carefully removed and the resulting formazan crystals were immediately solubilized in DMSO. The cells were then shaken gently for 10 min, after which absorbance of their lysate was measured at 570 nm and 690 nm using a microplate reader (Infinite M200, Tecan, Salzburg, Austria); background values obtained at 690 nm were subtracted from the measurements obtained at 570 nm. This method was used to assess the effect of ABC transporters on sensitivity to ensartinib, in drug combination assays, and to identify drug concentrations appropriate for use in induction studies.
(§3) Experiments focusing on the modulation of ABC transporter-mediated resistance were performed as described previously. The parent MDCKII and HL60 cells and their ABCB1-, ABCG2-, and ABCC1-overexpressing counterparts were seeded at the densities specified above onto 96-well culture plates and cultured for 24 h. The medium was subsequently replaced with serial dilutions of ensartinib alone or with various concentrations of a model MDR-susceptible cytostatic agent (daunorubicin or mitoxantrone) with or without 10 µM ensartinib. After 48 h incubation, the cells’ viability was determined as described above. In addition to performing IC50-shift analyses, the viability measurements were converted to FA (fraction of cells affected) values and the effects of drug combinations were quantified using the Chou-Talalay combination index (CI) method as implemented in CompuSyn 3.0.1 (ComboSyn Inc., Paramus, NJ, USA). The effects of concomitantly administered drugs were classified as synergistic (CI < 0.9), additive (0.9 < CI < 1.1), or antagonistic (CI > 1.1) based on the computed CI values.

MDCKII-ABCB1 cells = test: as above; settings: MDCKII-ABCB1
Protocol: as §2, §3

[2] = XTT proliferation / drug combination assay, HL60-ABCG2; type: cell-based, human; settings: human, HL60-ABCG2 cells, 48 h, XTT, read-out: IC50, sensitivity to ensartinib
Protocol: The MTT method is not readily adapted for use with suspension cell cultures, therefore the XTT assay was used to assess the proliferation of HL60 cells. Briefly, HL60-par, HL60-ABCB1, HL60-ABCG2, and HL60-ABCC1 cells were seeded at 2 × 10^4 cells/well in 96-well culture plates. Immediately after seeding, dilutions of the tested drugs or drug combinations were added to the cells. The plates were then incubated under standard conditions (37 °C, 5% CO2) for 48 h, after which XTT solution in PBS (1 mg/mL) and phenazine methosulfate (7.50 µg/mL) were added to the cells and the plates were incubated for another 5 h. Finally, the cells’ absorbance was measured at 450 nm using a microplate reader (Infinite M200, Tecan, Salzburg, Austria). This method was used to assess the effect of ABC transporters on sensitivity to ensartinib and in drug combination assays.
as §3

A431-parent cells = test: MTT proliferation assay, A431-parent; type: cell-based; settings: Homo sapiens, 48 h, read-out: IC50, sensitivity to ensartinib
Protocol: (§4) MTT proliferation assay was performed as described previously.

HepG2-CYP3A4 cells = test: Docetaxel combination assay (MTT), HepG2-CYP3A4; type: cell-based, human; settings: 1 µM docetaxel
Protocol: as §4
(§5) Cell viability was measured after a 48 h incubation using the MTT method as described above. […] Sensitization effects of < 0%, 0%, and >0% indicate antagonism, additivity, and synergism, respectively.

HepG2-EV cells = test: Docetaxel combination assay (MTT), HepG2-EV; type: cell-based, human; settings: 1 µM docetaxel, <0% antagonism, =0% additivity, >0% synergism
Protocol: as §4, §5

CYP3A4 = CYP3A4 (Homo sapiens, UniProt P08684); test: Vivid CYP screening kit, recombinant CYP3A4; type: biochemical; parameters: purchased Thermo Fisher Scientific; host or cells: insect microsomal fractions; settings: recombinant enzyme, 15 min incubation, absolute IC50; read-out: CYP3A4 inhibition IC50
Chain of CYP3A4 (P08684 2-503 limits assumed): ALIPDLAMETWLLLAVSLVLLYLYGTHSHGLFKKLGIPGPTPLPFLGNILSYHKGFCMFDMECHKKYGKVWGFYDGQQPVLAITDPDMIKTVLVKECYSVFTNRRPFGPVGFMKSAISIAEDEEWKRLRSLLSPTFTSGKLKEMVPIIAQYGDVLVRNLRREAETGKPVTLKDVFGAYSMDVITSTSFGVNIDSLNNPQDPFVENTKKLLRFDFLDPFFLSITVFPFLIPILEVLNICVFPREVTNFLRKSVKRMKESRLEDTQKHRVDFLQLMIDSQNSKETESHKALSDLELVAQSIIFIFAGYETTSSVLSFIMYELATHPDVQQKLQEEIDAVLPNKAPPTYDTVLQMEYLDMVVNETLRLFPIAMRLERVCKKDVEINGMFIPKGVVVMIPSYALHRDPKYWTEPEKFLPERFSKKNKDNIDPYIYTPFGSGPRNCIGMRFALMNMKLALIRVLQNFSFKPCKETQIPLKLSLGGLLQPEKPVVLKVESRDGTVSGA
Protocol: as §1

IC50 (CYP3A5): 19.1 µM | inhibitory effect on CYP1A2 (in words) (CYP1A2): no appreciable inhibitory effect | IC50 (CYP1A2; 15 min incubation, absolute IC50, read-out: CYP1A2 inhibition IC50): > 50 µM | inhibitory effect on CYP2B6 (in words) (CYP2B6): no appreciable inhibitory effect | IC50 (CYP2B6; 15 min incubation, absolute IC50, read-out: CYP2B6 inhibition IC50): > 50 µM | IC50 (A431-parent cells): 2.69 µM | IC50 (CYP3A4): 1.12 µM
SMILES: C[C@@H]1CN(C(=O)c2ccc(NC(=O)c3cc(O[C@H](C)c4c(Cl)ccc(F)c4Cl)c(N)nn3)cc2)C[C@H](C)N1 [ensartinib, Ensartinib]
IC50 at 48 h [1]: 23.9 µM | combination effect (Chou-Talalay combination index) (MDCKII-ABCB1 cells; 10 µM ensartinib with daunorubicin): synergistic (synergistic (CI < 0.9)) | RR (reversal ratio) (MDCKII-ABCB1 cells; daunorubicin, IC50 single drug / IC50 combined with 10 µM ensartinib): 11.2 | IC50 at 48 h [2]: 24.3 µM | docetaxel sensitization in CYP3A4-overexpressing cells (HepG2-CYP3A4 cells; 25 µM ensartinib (but not 15 µM), 48 h MTT): comparable to that induced by ketoconazole | sensitization effect of combination with docetaxel (HepG2-CYP3A4 cells; HepG2-CYP3A4, <0% antagonism, =0% additivity, >0% synergism): synergistic | sensitization effect of combination with docetaxel (HepG2-EV cells): antagonistic
